This is an account of results in US20260216131A1, “METHODS OF TREATING BREAST HYPERPLASIA USING TEZACAFTOR” (Jiangsu Bioscene Pharmaceutical Co., Ltd., priority 2023, published 2026).

Holding throughout (format): in vivo
The subject of experiment [1] is rat model of breast hyperplasia. Put plainly: Nipple diameter and height in rat model of breast hyperplasia. The note with it: for Nipple Height / Nipple Diameter: female SD rats, gavage, tezacaftor 40 mg/kg/day, tamoxifen 4 mg/kg/day; for Nipple Diameter: in mm (unit assumed); for Change in nipple diameter compared with the model group / Change in nipple height compared with the model group: after 30 days of administration, result in words. The text has this: (§1) Study Design: Thirty-two female SD rats, aged 7-8 weeks and weighing 200-250 g, were used. The rats were randomly divided into four groups: a normal control group, a model group, a tezacaftor treatment group (hereinafter referred to as the “treatment group”), and a tamoxifen treatment group (hereinafter referred to as the “positive control group”).
(§2) Before administration of the test drugs, breast hyperplasia was induced in the rats of the model group, the treatment group, and the positive control group. Specifically, estradiol benzoate injection was intramuscularly administered to the inner thigh of each rat at a dose of 0.5 mg/kg/day for 25 consecutive days. Starting on day 26, progesterone injection was intramuscularly administered to the inner thigh at a dose of 5 mg/kg/day for 5 consecutive days. The total modeling period was 30 days.
(§3) Normal control group: Normal saline in an equal volume was intramuscularly administered to the inner side of the hind limb of each rat once daily for 30 consecutive days, with the left and right hind limbs injected alternately. Beginning on day 31, normal saline was administered by gavage for 30 days.
(§4) Model group: Beginning on day 31, the vehicle was administered by gavage for 30 consecutive days. Samples were collected 0.5 hour after the last administration.
(§5) Treatment group: Beginning on day 31, tezacaftor was administered by gavage at a dose of 40 mg/kg/day for 30 consecutive days. Samples were collected 0.5 hour after the last administration.
(§6) Positive control group: Beginning on day 31, tamoxifen was administered by gavage at a dose of 4 mg/kg/day for 30 consecutive days. Samples were collected 0.5 hour after the last administration.
Evaluation indices: (1) nipple diameter and height; (2) ovarian index and uterine index; (3) changes in serum E2 and PROG levels; and (4) the number of mammary lobular acini, the acinar lumen diameter, and the duct diameter in rats. […]

The test system is the same in experiment [2]. Briefly: Ovarian index and uterine index in rat model of breast hyperplasia. The note with it: after 30 days of administration; for Ovarian index (ovary weight/body weight) / Uterine index (uterine weight/body weight): gavage, tezacaftor 40 mg/kg/day, tamoxifen 4 mg/kg/day; for Change in ovarian index compared with the model group / Change in uterine index compared with the model group: result in words.
Source text: as §1, §2, §3, §4, §5, §6
(§7) Evaluation indices: (1) nipple diameter and height; (2) ovarian index and uterine index; (3) changes in serum E2 and PROG levels; and (4) the number of mammary lobular acini, the acinar lumen diameter, and the duct diameter in rats.
In the study of Embodiment 1, after 30 days of administration, the uterus weight, ovary weight, and body weight of the rats were measured. The uterine index was calculated as uterine weight/body weight, and the ovarian index was calculated as ovary weight/body weight. A comparison of the ovarian index and uterine index among the different groups is shown in FIG. 2, and the corresponding data are presented in Table 3.

The test system is the same in experiment [3]. Put plainly: Serum E2 and PROG levels in rat model of breast hyperplasia. The note with it: after 30 days of administration; assay kit; result in words.
Source text: as §1, §2, §3, §4, §5, §6, §7
In the study of Embodiment 1, after 30 days of administration, serum E2 and PROG levels in rats of each group were measured using assay kits.

The test system is the same in experiment [4]. Put plainly: Histopathological evaluation (H&E) of mammary glands in rat model of breast hyperplasia. More on the design: key to Histopathological Examination Score of mammary gland: Absence of a lesion was scored as 0; 1: very slight; 2: mild; 3: moderate; 4: severe. The conditions noted are these: after 30 days of administration; for Breast hyperplasia compared with the model group: H&E pathology, result in words; for Histopathological Examination Score of mammary gland: individual animals No. 1-8, H&E staining.
Source text: as §1, §2, §3, §4, §5, §6, §7
In the study of Embodiment 1, after 30 days of administration, mammary gland tissues from rats in each group were collected, dehydrated, embedded, and sectioned. The sections were subjected to H&E staining and pathological analysis.

[5] abbreviates: Day 0 of treatment (baseline after modeling).

The structures appear in SMILES notation. Values joined by “and” are separate entries in the source; they are usually repeats but may differ in a detail not shown here. Equal entries are not always repeated. “Also recorded” adds a separate entry of the source.

As for `CC/C(=C(\c1ccccc1)c1ccc(OCCN(C)C)cc1)c1ccccc1` [tamoxifen], in experiment [1] (setting [5]), the “Nipple Height” value stood at 1.94 ± 0.16 mm and the “Nipple Diameter” value was determined as 1.63 ± 0.12. Besides, in experiment [1] (Day 15 of treatment), the “Nipple Height” value was determined as 1.70 ± 0.17 mm and the “Nipple Diameter” value was 1.28 ± 0.14. In experiment [1] (Day 30 of treatment), the “Nipple Height” value is reported as 1.56 ± 0.12 mm and the “Nipple Diameter” value is 1.11 ± 0.10. In experiment [1], the “Change in nipple diameter compared with the model group” value is “decreases” and the “Change in nipple height compared with the model group” value is recorded as “decreases”. Moreover, in experiment [2], the “Ovarian index (ovary weight/body weight)” value was determined as 0.145 ± 0.052%, the “Uterine index (uterine weight/body weight)” value is listed as 0.050 ± 0.015 %, the “Change in ovarian index compared with the model group” value is given as “decreases” and the “Change in uterine index compared with the model group” value is reported as “decreases”. Moreover, in experiment [3], the “Serum E2 level compared with the model group” value was “significantly decreased” and the “Serum PROG level compared with the model group” value is listed as “significantly increased”. Further, in experiment [4], the “Breast hyperplasia compared with the model group” value is reported as “alleviated”; the “Histopathological Examination Score of mammary gland” value was 0 and 1 (4×) and 2 (3×).

`CC(C)(CO)c1cc2cc(NC(=O)C3(c4ccc5c(c4)OC(F)(F)O5)CC3)c(F)cc2n1C[C@@H](O)CO` [tezacaftor]: in experiment [1] (setting [5]), the “Nipple Height” value worked out at 2.03 ± 0.12 mm and the “Nipple Diameter” value stood at 1.63 ± 0.14. In experiment [1] (Day 15 of treatment), the “Nipple Height” value is given as 1.73 ± 0.21 mm and the “Nipple Diameter” value amounted to 1.24 ± 0.13. For the same compound, in experiment [1] (Day 30 of treatment), the “Nipple Height” value turned out to be 1.61 ± 0.13 mm and the “Nipple Diameter” value amounted to 1.12 ± 0.08. Moreover, in experiment [1], the “Change in nipple diameter compared with the model group” value is “significantly reduced; also recorded: decreases” and the “Change in nipple height compared with the model group” value was “significantly reduced; also recorded: decreases”. Moreover, in experiment [2], the “Ovarian index (ovary weight/body weight)” value is 0.186 ± 0.088%, the “Uterine index (uterine weight/body weight)” value is listed as 0.055 ± 0.012 %, the “Change in ovarian index compared with the model group” value is recorded as “decreases” and the “Change in uterine index compared with the model group” value is on record as “significantly reduced; also recorded: decreases”. Besides, in experiment [3], the “Serum E2 level compared with the model group” value was “significantly decreased; also recorded: significantly improved” and the “Serum PROG level compared with the model group” value was “significantly increased; also recorded: significantly improved”. In addition, in experiment [4], the “Breast hyperplasia compared with the model group” value is “alleviated; also recorded: alleviating breast hyperplasia”; the “Histopathological Examination Score of mammary gland” value is 1 (4×) and 2 (4×).
